Experiments:
[1] = Biodistribution in rat liver at 15 mins; type: ADME, organism-based; details: read-out: Drug uptake
[2] = Biodistribution in rat liver at 60 mins; type: ADME, organism-based; details: read-out: Drug uptake
[3] = Drug uptake in left ventricle of Sprague-Dawley rat ischemia reperfusion injury model at 74 MBq, iv measured for 60 mins by TTC staining-based micro-SPECT analysis; type: ADME, organism-based, Heart left ventricle; details: in vivo, 1 h
[4] = Drug uptake in left ventricle of Sprague-Dawley rat left anterior descending occlusion model at 74 MBq, iv measured for 60 mins by TTC staining-based micro-SPECT analysis; type: ADME, organism-based, Heart left ventricle; details: in vivo, 1 h
[5] = Drug uptake in Sprague-Dawley rat parathyroid at 37 to 111 MBq, iv measured for 60 mins by TTC staining-based micro-SPECT analysis; type: ADME, organism-based, Thyroid gland; details: in vivo, 1 h
[6] = test system: Thyroid gland; assay: Drug uptake in Sprague-Dawley rat thyroid at 37 to 111 MBq, iv measured for 60 mins by TTC staining-based micro-SPECT analysis; type: ADME, organism-based; details: in vivo, 1 h
[7] = test system: Liver; assay: Drug uptake in Sprague-Dawley rat liver at 37 to 111 MBq, iv measured for 60 mins by TTC staining-based micro-SPECT analysis; type: ADME, organism-based; details: in vivo, 1 h
[8] = test system: Lung; assay: Drug uptake in Sprague-Dawley rat lung at 37 to 111 MBq, iv measured for 60 mins by TTC staining-based micro-SPECT analysis; type: ADME, organism-based; details: in vivo, 1 h
[9] = Drug uptake in Sprague-Dawley rat myocardium at 37 to 111 MBq, iv measured for 60 mins by TTC staining-based micro-SPECT analysis; type: ADME, organism-based; details: in vivo, 1 h
[10] = Ratio of drug level in heart to blood in Sprague-Dawley rat at 37 to 111 MBq, iv measured at 24 hrs; type: ADME, organism-based
[11] = test system: Thyroid gland; assay: Biodistribution in Sprague-Dawley rat thyroid assessed per organ at 37 to 111 MBq, iv measured at 24 hrs by gamma counting analysis; type: ADME, organism-based; details: in vivo
[12] = test system: Thyroid gland; assay: Biodistribution in Sprague-Dawley rat thyroid at 37 to 111 MBq, iv measured at 24 hrs by gamma counting analysis; type: ADME, organism-based; details: in vivo
[13] = test system: Rattus norvegicus; assay: Biodistribution in Sprague-Dawley rat stomach at 37 to 111 MBq, iv measured at 24 hrs by gamma counting analysis; type: ADME, organism-based; details: in vivo
[14] = test system: Ovary; assay: Biodistribution in Sprague-Dawley rat ovary at 37 to 111 MBq, iv measured at 24 hrs by gamma counting analysis; type: ADME, organism-based, Female gonad; details: in vivo
[15] = test system: Rattus norvegicus; assay: Biodistribution in Sprague-Dawley rat testis at 37 to 111 MBq, iv measured at 24 hrs by gamma counting analysis; type: ADME, organism-based; details: in vivo
[16] = test system: Lung; assay: Biodistribution in Sprague-Dawley rat lung at 37 to 111 MBq, iv measured at 24 hrs by gamma counting analysis; type: ADME, organism-based; details: in vivo
[17] = test system: Heart; assay: Biodistribution in Sprague-Dawley rat heart at 37 to 111 MBq, iv measured at 24 hrs by gamma counting analysis; type: ADME, organism-based; details: in vivo
[18] = test system: Kidney; assay: Biodistribution in Sprague-Dawley rat kidney at 37 to 111 MBq, iv measured at 24 hrs by gamma counting analysis; type: ADME, organism-based; details: in vivo
[19] = test system: Intestine; assay: Biodistribution in Sprague-Dawley rat intestine at 37 to 111 MBq, iv measured at 24 hrs by gamma counting analysis; type: ADME, organism-based; details: in vivo
[20] = test system: Brain; assay: Biodistribution in Sprague-Dawley rat brain at 37 to 111 MBq, iv measured at 24 hrs by gamma counting analysis; type: ADME, organism-based; details: in vivo
[21] = test system: Blood; assay: Biodistribution in Sprague-Dawley rat blood at 37 to 111 MBq, iv measured at 24 hrs by gamma counting analysis; type: ADME, organism-based; details: in vivo
[22] = test system: Spleen; assay: Biodistribution in Sprague-Dawley rat spleen at 37 to 111 MBq, iv measured at 24 hrs by gamma counting analysis; type: ADME, organism-based; details: in vivo
[23] = test system: Muscle tissue; assay: Biodistribution in Sprague-Dawley rat muscle at 37 to 111 MBq, iv measured at 24 hrs by gamma counting analysis; type: ADME, organism-based; details: in vivo
[24] = test system: Femur; assay: Biodistribution in Sprague-Dawley rat femur at 37 to 111 MBq, iv measured at 24 hrs by gamma counting analysis; type: ADME, organism-based; details: in vivo
[25] = test system: Liver; assay: Biodistribution in Sprague-Dawley rat liver at 37 to 111 MBq, iv measured at 24 hrs by gamma counting analysis; type: ADME, organism-based; details: in vivo
[26] = test system: Rattus norvegicus; assay: Biodistribution in Sprague-Dawley rat urinary bladder at 37 to 111 MBq, iv measured at 24 hrs by gamma counting analysis; type: ADME, organism-based; details: in vivo
[27] = Ratio of drug level in heart to blood in Sprague-Dawley rat at 37 to 111 MBq, iv measured at 2 hrs; type: ADME, organism-based
[28] = test system: Thyroid gland; assay: Biodistribution in Sprague-Dawley rat thyroid assessed per organ at 37 to 111 MBq, iv measured at 2 hrs by gamma counting analysis; type: ADME, organism-based; details: in vivo
[29] = test system: Thyroid gland; assay: Biodistribution in Sprague-Dawley rat thyroid at 37 to 111 MBq, iv measured at 2 hrs by gamma counting analysis; type: ADME, organism-based; details: in vivo
[30] = test system: Rattus norvegicus; assay: Biodistribution in Sprague-Dawley rat stomach at 37 to 111 MBq, iv measured at 2 hrs by gamma counting analysis; type: ADME, organism-based; details: in vivo
[31] = test system: Ovary; assay: Biodistribution in Sprague-Dawley rat ovary at 37 to 111 MBq, iv measured at 2 hrs by gamma counting analysis; type: ADME, organism-based, Female gonad; details: in vivo
[32] = test system: Rattus norvegicus; assay: Biodistribution in Sprague-Dawley rat testis at 37 to 111 MBq, iv measured at 2 hrs by gamma counting analysis; type: ADME, organism-based; details: in vivo
[33] = test system: Lung; assay: Biodistribution in Sprague-Dawley rat lung at 37 to 111 MBq, iv measured at 2 hrs by gamma counting analysis; type: ADME, organism-based; details: in vivo
[34] = test system: Heart; assay: Biodistribution in Sprague-Dawley rat heart at 37 to 111 MBq, iv measured at 2 hrs by gamma counting analysis; type: ADME, organism-based; details: in vivo
[35] = test system: Kidney; assay: Biodistribution in Sprague-Dawley rat kidney at 37 to 111 MBq, iv measured at 2 hrs by gamma counting analysis; type: ADME, organism-based; details: in vivo
[36] = test system: Intestine; assay: Biodistribution in Sprague-Dawley rat intestine at 37 to 111 MBq, iv measured at 2 hrs by gamma counting analysis; type: ADME, organism-based; details: in vivo
[37] = test system: Brain; assay: Biodistribution in Sprague-Dawley rat brain at 37 to 111 MBq, iv measured at 2 hrs by gamma counting analysis; type: ADME, organism-based; details: in vivo
[38] = test system: Blood; assay: Biodistribution in Sprague-Dawley rat blood at 37 to 111 MBq, iv measured at 2 hrs by gamma counting analysis; type: ADME, organism-based; details: in vivo
[39] = test system: Muscle tissue; assay: Biodistribution in Sprague-Dawley rat muscle at 37 to 111 MBq, iv measured at 2 hrs by gamma counting analysis; type: ADME, organism-based; details: in vivo
[40] = test system: Femur; assay: Biodistribution in Sprague-Dawley rat femur at 37 to 111 MBq, iv measured at 2 hrs by gamma counting analysis; type: ADME, organism-based; details: in vivo
[41] = test system: Liver; assay: Biodistribution in Sprague-Dawley rat liver at 37 to 111 MBq, iv measured at 2 hrs by gamma counting analysis; type: ADME, organism-based; details: in vivo
[42] = test system: Rattus norvegicus; assay: Biodistribution in Sprague-Dawley rat urinary bladder at 37 to 111 MBq, iv measured at 2 hrs by gamma counting analysis; type: ADME, organism-based; details: in vivo
[43] = Biodistribution in Sprague-Dawley rat urine at 37 to 111 MBq, iv measured at 2 hrs by gamma counting analysis; type: ADME, organism-based; details: in vivo
[44] = Biodistribution in Sprague-Dawley rat urine at 37 to 111 MBq, iv measured at 24 hrs by gamma counting analysis; type: ADME, organism-based; details: in vivo
[45] = test system: Spleen; assay: Biodistribution in Sprague-Dawley rat spleen at 37 to 111 MBq, iv measured at 2 hrs by gamma counting analysis; type: ADME, organism-based; details: in vivo
[46] = Ratio of drug level in heart to lung in Sprague-Dawley rat at 37 to 111 MBq, iv measured at 2 hrs; details: in vivo
[47] = Ratio of drug level in heart to lung in Sprague-Dawley rat at 37 to 111 MBq, iv measured at 24 hrs; details: in vivo
[48] = Ratio of drug level in heart to liver in Sprague-Dawley rat at 37 to 111 MBq, iv measured at 2 hrs; details: in vivo
[49] = Ratio of drug level in heart to liver in Sprague-Dawley rat at 37 to 111 MBq, iv measured at 24 hrs; details: in vivo

CC(C)(C)n1ncc(OCc2ccc(CCCC[18F])cc2)c(Cl)c1=O
tissue uptake at 0.25 h [1]: 1.6 %ID/g
tissue uptake at 1 h [2]: 1.3 %ID/g

COc1cc2c(cc1OC)[C@@H]1C(=O)c3ccc4c(c3O[C@@H]1CO2)C[C@H](C(C)(O)C[123I])O4 (some centres undefined)
Drug uptake [3]: Active
Drug uptake [4]: Active
Drug uptake [5]: Active
Drug uptake [6]: Active
Drug uptake [7]: Not Active
Drug uptake [8]: Not Active
Drug uptake [9]: Active
Kp at 24 h [10]: 0.79
Drug uptake [11]: 3.16 %ID
Drug uptake [12]: 13.329 % ID/g
Drug uptake [13]: 2.121 % ID/g
Drug uptake [14]: 0.04 % ID/g
Drug uptake [15]: 0.04 % ID/g
Drug uptake [16]: 0.055 % ID/g
Drug uptake [17]: 0.045 % ID/g
Drug uptake [18]: 0.044 % ID/g
Drug uptake [19]: 0.122 % ID/g
Drug uptake [20]: 0.003 % ID/g
Drug uptake [21]: 0.06 % ID/g
Drug uptake [22]: 0.032 % ID/g
Drug uptake [23]: 0.024 % ID/g
Drug uptake [24]: 0.025 % ID/g
Drug uptake [25]: 0.042 % ID/g
Drug uptake [26]: 0.768 % ID/g
Kp at 2 h [27]: 8.37
Drug uptake [28]: 0.334 %ID
Drug uptake [29]: 1.368 % ID/g
Drug uptake [30]: 3.263 % ID/g
Drug uptake [31]: 0.22 % ID/g
Drug uptake [32]: 0.22 % ID/g
Drug uptake [33]: 0.502 % ID/g
Drug uptake [34]: 2.01 % ID/g
Drug uptake [35]: 0.7 % ID/g
Drug uptake [36]: 0.846 % ID/g
Drug uptake [37]: 0.098 % ID/g
Drug uptake [38]: 0.257 % ID/g
Drug uptake [39]: 0.357 % ID/g
Drug uptake [40]: 0.242 % ID/g
Drug uptake [41]: 0.709 % ID/g
Drug uptake [42]: 0.918 % ID/g
Drug uptake [43]: 0.918 % ID/g
Drug uptake [44]: 0.768 % ID/g
Drug uptake [45]: 0.234 % ID/g
Ratio [46]: 4.11
Ratio [47]: 0.85
Ratio [48]: 2.98
Ratio [49]: 1.08

Source: ChEMBL document CHEMBL2390945, “Synthesis and characterization of 123I-CMICE-013: a potential SPECT myocardial perfusion imaging agent” (Bioorg Med Chem, 2013)
